Experimental data from US12685790B2, “Stable, concentrated radiopharmaceutical composition” (NOVARTIS AG, priority 2019, dated 2026).

Key:
[1] = biological target: GRPR expressed in breast, prostate, and Gastro Intestinal Stromal Tumor (GIST) (Homo sapiens, UniProt P30550); conditions: non-clinical models; cited from earlier work
GRPR = GRPR (Homo sapiens, UniProt P30550); conditions: non-clinical models; cited from earlier work
[2] = Radiochemical purity (RCP) stability of 177Lu-NeoB drug product formulations over shelf life (72 h), lab-scale batches; type: physicochemical; conditions: Table 7: gentisic acid 1000 μg/mL, ascorbic acid 15000 μg/mL, Kolliphor HS 15 100 μg/mL, about 200 mCi, 10 mCi/mL; end of shelf life (72 hours)
Description: “Radiochemical purity”: is that percentage of the stated radionuclide that is present in the stated chemical or biological form. Radiochromatography methods, such as HPLC method or instant Thin Layer Chromatography method (ITLC), are the most commonly accepted methods for determining radiochemical purity in the nuclear pharmacy.
The stability of the ^177Lu-labelled product over 72 hours with the same antioxidant amount present in the Lutathera formulation. In particular, the following conditions are reproduced: […] step; • Kolliphor HS 15:1 mg added before the labelling step; • Peptide: Lu ratio≥1.5; […] during the formulation step; • Final volumetric Activity 10 mCi/mL; • Final pH 4-6; • Reaction buffer: Acetic acid/acetate buffer;
The radiolabelling tests are carried out both manually and automatically by using the MiniAlO synthesizer. The synthesis procedure is developed as follows: • 1. Transferring of ^177LuCl3 into reactor; • 2. Transferring of the reaction buffer into reactor. The reaction buffer is composed of sodium acetate buffer and gentisic acid. The acetate buffer allows to maintain the labelling pH between 4-5, while the gentisic acid protects the peptide from radiolysis during the labelling step; • 3. Addition of the NeoB1 solution containing Kolliphor HS 15 into reactor; • 4. Heating at 95° C. for 5 minutes; […]

Sequence of GRPR (P30550 whole entry): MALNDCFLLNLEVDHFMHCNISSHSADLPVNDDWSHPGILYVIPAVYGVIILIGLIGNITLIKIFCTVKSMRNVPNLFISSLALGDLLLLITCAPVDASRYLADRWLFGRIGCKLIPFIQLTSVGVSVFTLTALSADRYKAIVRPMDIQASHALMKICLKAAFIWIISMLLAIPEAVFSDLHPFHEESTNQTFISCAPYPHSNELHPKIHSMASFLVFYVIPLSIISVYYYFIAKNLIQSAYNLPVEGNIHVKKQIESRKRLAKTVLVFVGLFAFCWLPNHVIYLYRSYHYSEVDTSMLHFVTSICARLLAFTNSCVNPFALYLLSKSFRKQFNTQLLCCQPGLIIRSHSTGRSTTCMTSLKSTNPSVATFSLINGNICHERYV
Sequence of GRPR expressed in breast, prostate, and Gastro Intestinal Stromal Tumor (GIST) (P30550 whole entry): as above

For `CC(C)CC(CC(C)C)NC(=O)[C@H](Cc1cnc[nH]1)NC(=O)CNC(=O)[C@@H](NC(=O)[C@H](C)NC(=O)[C@H](Cc1c[nH]c2ccccc12)NC(=O)[C@H](CCC(N)=O)NC(=O)[C@@H](Cc1ccccc1)NC(=O)COCC(=O)Nc1ccc(CNC(=O)CN2CCN(CC(=O)O)CCN(CC(=O)O)CCN(CC(=O)O)CC2)cc1)C(C)C` [[^68Ga]-NeoB, metal not drawn], the “affinity to the GRPR” value [1] is listed as “high affinity” and the “degree of internalization upon binding to the specific receptor” value (GRPR) is listed as “low degree of internalization”.

For `CC(C)CC(CC(C)C)NC(=O)[C@H](Cc1cnc[nH]1)NC(=O)CNC(=O)[C@@H](NC(=O)[C@H](C)NC(=O)[C@H](Cc1c[nH]c2ccccc12)NC(=O)[C@H](CCC(N)=O)NC(=O)[C@@H](Cc1ccccc1)NC(=O)COCC(=O)Nc1ccc(CNC(=O)CN2CCN(CC(=O)O)CCN(CC(=O)O)CCN(CC(=O)O)CC2)cc1)C(C)C` [[^177Lu]-NeoB, metal not drawn], the “Radiochemical purity (%) at end of shelf life” value [2] was “over 95%”.
